Data published in patent US6352958B1, “Cycloimido-substituted benzofused heterocyclic herbicides” (FMC Corporation, priority 1997, dated 2002).

Assays:
Format in all cases: in vivo
[1] = system: common chickweed (Stellaria media); experiment: Preemergence herbicidal activity, chickweed; conditions: Rate of Application 0.3 Kg/Ha, examined after 12-17 days
[2] = system: Johnsongrass (Sorghum halepense); experiment: Postemergence herbicidal activity, johnsongrass; conditions: rate of application 0.3 Kg/Ha, rated after 12-17 days
[3] = system: field corn (Zea mays var. Pioneer 3732); experiment: Postemergence herbicidal activity, corn; conditions: rate of application 0.3 Kg/Ha, rated after 12-17 days
[4] = system: common cocklebur (Xanthium strumarium L.); experiment: Preemergence herbicidal activity, cocklebur; conditions: Rate of Application 0.3 Kg/Ha, examined after 12-17 days
[5] = system: wheat (Triticum aestivum var. Lew); experiment: Postemergence herbicidal activity, wheat; conditions: rate of application 0.3 Kg/Ha, rated after 12-17 days
[6] = system: green foxtail (Setaria viridis); experiment: Preemergence herbicidal activity, green foxtail; conditions: Rate of Application 0.3 Kg/Ha, examined after 12-17 days
[7] = system: velvetleaf (Abutilon theophrasti); experiment: Preemergence herbicidal activity, velvetleaf; conditions: Rate of Application 0.3 Kg/Ha, examined after 12-17 days
[8] = system: blackgrass (Aloepecurus myosuroides); experiment: Postemergence herbicidal activity, blackgrass; conditions: rate of application 0.3 Kg/Ha, rated after 12-17 days
Protocol: The benzofused heterocyclic compounds of this invention were tested for pre- and postemergence herbicidal activity using a variety of crops and weeds. The test plants included soybean (Glycine max var. Winchester), field corn (Zea mays var. Pioneer 3732), wheat (Triticum aestivum var. Lew), morningglory (Ipomea lacunosa or Ipomea hederacea), velvetleaf (Abutilon theophrasti), green foxtail (Setaria viridis), Johnsongrass (Sorghum halepense), blackgrass (Aloepecurus myosuroides), common chickweed (Stellaria media), and common cocklebur (Xanthium strumarium L.).
For preemergence testing, two disposable fiber flats (8 cm×15 cm×25 cm) for each rate of application of each candidate herbicide were filled to an approximate depth of 6.5 cm with steam-sterilized sandy loam soil. The soil was leveled and impressed with a template to provide five evenly spaced furrows 13 cm long and 0.5 cm deep in each flat. Seeds of soybean, wheat, corn, green foxtail, and johnsongrass were planted in the furrows of the first flat, and seeds of velvetleaf, morningglory, common chickweed, cocklebur, and blackgrass were planted in the furrows of the second flat. The five-row template was employed to firmly press the seeds into place. A topping soil of equal portions of sand and sandy loam soil was placed uniformly on top of each flat to a depth of approximately 0.5 cm. Flats for postemergence testing were prepared in the same manner except that they were planted 9-14 days prior to the preemergence flats and were placed in a greenhouse and watered, thus allowing the seeds to germinate and the foliage to develop.
In both pre- and postemergence tests, a stock solution of the candidate herbicide was prepared by dissolving 0.27 g of the compound in 20 mL of water/acetone (50/50) containing 0.5% v/v sorbitan monolaurate. For an application rate of 3000 g/ha of herbicide a 10 mL portion of the stock solution was diluted with water/acetone (50/50) to 45 mL.
The preemergence flats were initially subjected to a light water spray. The four flats were placed two by two along a conveyor belt (i.e., the two preemergence followed by the two postemergence flats). The conveyor belt fed under a spray nozzle mounted about ten inches above the post-emergent foliage. The preemergent flats were elevated on the belt so that the soil surface was at the same level below the spray nozzle as the foliage canopy of the postemergent plants. The spray of herbicidal solution was commenced and once stabilized, the flats were passed under the spray at a speed to receive a coverage equivalent of 100 L/ha. At this coverage the application rates are those shown in the above table for the individual herbicidal solutions. The preemergence flats were watered immediately thereafter, placed in the greenhouse and watered regularly at the soil surface. The postemergence flats were immediately placed in the green-house and not watered until 24 hours after treatment with the test solution. Thereafter they were regularly watered at ground level. After 12-17 days the plants were examined and the phytotoxicity data were recorded.
Phytotoxicity data were taken as percent control. Percent control was determined by a method similar to the 0 to 100 rating system disclosed in “Research Methods in Weed Science,” 2nd ed., B. Truelove, Ed.; Southern Weed Science Society; Auburn University, Auburn, Ala., 1977.

[9] = system: common cocklebur (Xanthium strumarium L.); experiment: Postemergence herbicidal activity, cocklebur; conditions: rate of application 0.3 Kg/Ha, rated after 12-17 days
[10] = system: wheat (Triticum aestivum var. Lew); experiment: Preemergence herbicidal activity, wheat; conditions: Rate of Application 0.3 Kg/Ha, examined after 12-17 days
[11] = system: field corn (Zea mays var. Pioneer 3732); experiment: Preemergence herbicidal activity, corn; conditions: Rate of Application 0.3 Kg/Ha, examined after 12-17 days
[12] = system: soybean (Glycine max var. Winchester); experiment: Postemergence herbicidal activity, soybean; conditions: rate of application 0.3 Kg/Ha, rated after 12-17 days
[13] = system: morningglory (Ipomea lacunosa or Ipomea hederacea); experiment: Preemergence herbicidal activity, morningglory; conditions: Rate of Application 0.3 Kg/Ha, examined after 12-17 days
[14] = system: velvetleaf (Abutilon theophrasti); experiment: Postemergence herbicidal activity, velvetleaf; conditions: rate of application 0.3 Kg/Ha, rated after 12-17 days
[15] = system: morningglory (Ipomea lacunosa or Ipomea hederacea); experiment: Postemergence herbicidal activity, morningglory; conditions: rate of application 0.3 Kg/Ha, rated after 12-17 days
[16] = system: Johnsongrass (Sorghum halepense); experiment: Preemergence herbicidal activity, johnsongrass; conditions: Rate of Application 0.3 Kg/Ha, examined after 12-17 days
[17] = system: green foxtail (Setaria viridis); experiment: Postemergence herbicidal activity, green foxtail; conditions: rate of application 0.3 Kg/Ha, rated after 12-17 days
[18] = system: blackgrass (Aloepecurus myosuroides); experiment: Preemergence herbicidal activity, blackgrass; conditions: Rate of Application 0.3 Kg/Ha, examined after 12-17 days
[19] = system: soybean (Glycine max var. Winchester); experiment: Preemergence herbicidal activity, soybean; conditions: Rate of Application 0.3 Kg/Ha, examined after 12-17 days

| SMILES | PREEMERGENCE HERBICIDAL ACTIVITY (% CONTROL) STEME [1] [%] | Postemergence herbicidal activity (% control) SORHA [2] [%] | Postemergence herbicidal activity (% control) CRN [3] [%] | PREEMERGENCE HERBICIDAL ACTIVITY (% CONTROL) XANPE [4] [%] | Postemergence herbicidal activity (% control) WHT [5] [%] | PREEMERGENCE HERBICIDAL ACTIVITY (% CONTROL) SETVI [6] [%] | PREEMERGENCE HERBICIDAL ACTIVITY (% CONTROL) ABUTH [7] [%] | Postemergence herbicidal activity (% control) ALOMY [8] [%] | Postemergence herbicidal activity (% control) XANPE [9] [%] | PREEMERGENCE HERBICIDAL ACTIVITY (% CONTROL) WHT [10] [%] | PREEMERGENCE HERBICIDAL ACTIVITY (% CONTROL) CRN [11] [%] | Postemergence herbicidal activity (% control) SOY [12] [%] | PREEMERGENCE HERBICIDAL ACTIVITY (% CONTROL) IPOSS [13] [%] | Postemergence herbicidal activity (% control) ABUTH [14] [%] | Postemergence herbicidal activity (% control) IPOSS [15] [%] | PREEMERGENCE HERBICIDAL ACTIVITY (% CONTROL) SORHA [16] [%] | Postemergence herbicidal activity (% control) SETVI [17] [%] | PREEMERGENCE HERBICIDAL ACTIVITY (% CONTROL) ALOMY [18] [%] | PREEMERGENCE HERBICIDAL ACTIVITY (% CONTROL) SOY [19] [%] | other results |
| --- | --- | --- | --- | --- | --- | --- | --- | --- | --- | --- | --- | --- | --- | --- | --- | --- | --- | --- | --- | --- |
| COc1nc2c(-n3c(=O)cc(C(F)(F)F)n(C)c3=O)c(F)cc(Br)c2o1 [Compound 109, 1-METHYL-6-TRIFLUOROMETHYL-3-(7-BROMO-5-FLUORO-2-METHOXYBENZOXAZOL-4-YL)-2,4(1H,3H)-PYRIMIDINEDIONE] | – | – | – | – | – | – | – | – | – | – | – | – | – | – | – | – | – | – | – | inhibition at 300 g/ha ([1]; Stellaria media, pre-emergence, read-out: PREEMERGENCE HERBICIDAL ACTIVITY (% CONTROL) STEME): 100%; inhibition at 300 g/ha ([2]; Sorghum halepense, post-emergence, read-out: Postemergence herbicidal activity (% control) SORHA): 90%; inhibition at 300 g/ha ([3]; Zea mays, post-emergence, read-out: Postemergence herbicidal activity (% control) CRN): 80%; inhibition at 300 g/ha ([4]; Xanthium strumarium, pre-emergence, read-out: PREEMERGENCE HERBICIDAL ACTIVITY (% CONTROL) XANPE): 100%; inhibition at 300 g/ha ([5]; Triticum aestivum, post-emergence, read-out: Postemergence herbicidal activity (% control) WHT): 90%; inhibition at 300 g/ha ([6]; Setaria viridis, pre-emergence, read-out: PREEMERGENCE HERBICIDAL ACTIVITY (% CONTROL) SETVI): 100%; inhibition at 300 g/ha ([7]; Abutilon theophrasti, pre-emergence, read-out: PREEMERGENCE HERBICIDAL ACTIVITY (% CONTROL) ABUTH): 100%; inhibition at 300 g/ha ([8]; Alopecurus myosuroides, post-emergence, read-out: Postemergence herbicidal activity (% control) ALOMY): 90%; inhibition at 300 g/ha ([9]; Xanthium strumarium, post-emergence, read-out: Postemergence herbicidal activity (% control) XANPE): 100%; inhibition at 300 g/ha ([10]; Triticum aestivum, pre-emergence, read-out: PREEMERGENCE HERBICIDAL ACTIVITY (% CONTROL) WHT): 100%; inhibition at 300 g/ha ([11]; Zea mays, pre-emergence, read-out: PREEMERGENCE HERBICIDAL ACTIVITY (% CONTROL) CRN): 90%; inhibition at 300 g/ha ([12]; Glycine max, post-emergence, read-out: Postemergence herbicidal activity (% control) SOY): 90%; inhibition at 300 g/ha ([13]; Ipomoea, pre-emergence, read-out: PREEMERGENCE HERBICIDAL ACTIVITY (% CONTROL) IPOSS): 100%; inhibition at 300 g/ha ([14]; Abutilon theophrasti, post-emergence, read-out: Postemergence herbicidal activity (% control) ABUTH): 100%; inhibition at 300 g/ha ([15]; Ipomoea, post-emergence, read-out: Postemergence herbicidal activity (% control) IPOSS): 100%; inhibition at 300 g/ha ([16]; Sorghum halepense, pre-emergence, read-out: PREEMERGENCE HERBICIDAL ACTIVITY (% CONTROL) SORHA): 100%; inhibition at 300 g/ha ([17]; Setaria viridis, post-emergence, read-out: Postemergence herbicidal activity (% control) SETVI): 100%; inhibition at 300 g/ha ([18]; Alopecurus myosuroides, pre-emergence, read-out: PREEMERGENCE HERBICIDAL ACTIVITY (% CONTROL) ALOMY): 100%; inhibition at 300 g/ha ([19]; Glycine max, pre-emergence, read-out: PREEMERGENCE HERBICIDAL ACTIVITY (% CONTROL) SOY): 100% |
| Cc1nc2c(-n3c(=O)cc(C(F)(F)F)n(C)c3=O)c(F)cc(Cl)c2[nH]1 [Compound 363] | 100 | 100 | 100 | 100 | 100 | 100 | 100 | 100 | 100 | 100 | 100 | 100 | 100 | 100 | 100 | 100 | 100 | 100 | 100 | – |
| Cn1c(C(F)(F)F)cc(=O)n(-c2c(F)cc(Cl)c3cc(CCF)oc23)c1=O [Compound 237] | 100 | 100 | 100 | 100 | 95 | 100 | 100 | 100 | 100 | 90 | 90 | 100 | 100 | 100 | 100 | 100 | 100 | 100 | 100 | – |
| Cn1c(C(F)(F)F)cc(=O)n(-c2c(F)cc(Cl)c3nc(Cc4ccccc4)[nH]c23)c1=O [Compound 376] | 100 | 100 | 95 | 100 | 50 | 100 | 100 | 90 | 100 | 60 | 80 | 90 | 100 | 100 | 100 | 70 | 100 | 100 | 50 | – |
